In the test the target is human BACE1 (Homo sapiens, UniProt P56817). The experiment in a line: Fluorescent kinetic assay, evaluation of BACE1 binding affinity of test compounds. As to conditions: 10 nM human BACE1, 25 μM substrate WABC-6, pH 4.5, room temperature; for pIC50: read-out: BACE1 IC50; for IC50: BACE1 IC50 μM. The class given is biochemical. The method, boiled down: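 Kinetic fluorescence assay: enzyme added last to inhibitor and substrate mix, reading started immediately; substrate at 100 μM working dilution (25 μL in 100 μL total). Buffer 66.7 mM Na-acetate pH 4.5 with 0.0667% CHAPS for inhibitor and enzyme dilutions; enzyme stock quantified at 280 nm.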

Molecules are shown by their SMILES. pIC50: −log10 of the molar value. Like-named read-outs stand apart in the source and are kept apart here. Some results are limits rather than exact numbers.

human BACE1, sequence (P56817 46-501): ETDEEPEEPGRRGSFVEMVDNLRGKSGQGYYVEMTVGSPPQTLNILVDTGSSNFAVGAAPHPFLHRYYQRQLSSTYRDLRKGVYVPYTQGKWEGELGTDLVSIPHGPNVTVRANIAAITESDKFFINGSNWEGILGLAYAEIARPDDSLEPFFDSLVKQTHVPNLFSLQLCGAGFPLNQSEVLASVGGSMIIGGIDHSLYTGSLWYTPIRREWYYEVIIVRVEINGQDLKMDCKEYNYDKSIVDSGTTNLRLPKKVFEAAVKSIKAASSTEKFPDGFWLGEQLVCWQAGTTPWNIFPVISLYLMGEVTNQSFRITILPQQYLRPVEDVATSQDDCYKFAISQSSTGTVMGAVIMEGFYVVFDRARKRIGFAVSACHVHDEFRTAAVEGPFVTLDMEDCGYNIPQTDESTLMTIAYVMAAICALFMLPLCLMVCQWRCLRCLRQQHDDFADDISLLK

For `CCCOc1cc(C2(c3ccc(OC(F)F)c(Cl)c3)N=C(N)N(C)C2=O)ccc1F` (centres unmarked) [Example 97, 2-Amino-5-[3-chloro-4-(difluoromethoxy)phenyl]-5-(4-fluoro-3-propoxyphenyl)-3-methyl-3,5-dihydro-4H-imidazol-4-one], the pIC50 – broadly, the IC50 on a negative log10 scale, so that one unit is a factor of ten – was greater than 7.00.

Turning to `Cc1cc(C2(c3cccc(OCCF)c3)N=C(N)N(C)C2=O)ccc1OC(F)F` (centres unmarked) [Example 42], the negative logarithm of the IC50 (pIC50) was greater than 7.00.

For `Cc1cc(C2(c3ccc(F)c(OCC4CC4)c3)N=C(N)N(C)C2=O)ccc1OC(F)F` (centres unmarked) [Example 105, 2-Amino-5-[3-(cyclopropylmethoxy)-4-fluorophenyl]-5-[4-(difluoromethoxy)-3-methylphenyl]-3-methyl-3,5-dihydro-4H-imidazol-4-one], the pIC50 was greater than 7.00.

For the compound `Cc1cc([C@]2(c3ccc(F)c(OCC4CC4)c3)N=C(N)N(C)C2=O)ccc1OC(F)F` [Example 106, (5R)-2-Amino-5-[3-(cyclopropylmethoxy)-4-fluorophenyl]-5-[4-(difluoromethoxy)-3-methylphenyl]-3-methyl-3,5-dihydro-4H-imidazol-4-one], the pIC50 is greater than 7.00.

Consider `CC#Cc1cccc(C2(c3ccc(OC(F)F)c(C4CC4)c3)N=C(N)N(C)C2=O)c1` (centres unmarked) [Example 168, 2-amino-4-(3-cyclopropyl-4-(difluoromethoxy)phenyl)-1-methyl-4-(3-(prop-1-ynyl)phenyl)-1H-imidazol-5(4H)-one], for which the pIC50 is greater than 7.00.

In the case of `CCc1cc([C@]2(c3ccc(F)c(C#CC4CC4)c3)N=C(N)N(C)C2=O)ccc1OC(F)F` [Example 147, (5R)-2-Amino-5-[3-(cyclopropylethynyl)-4-fluorophenyl]-5-[4-(difluoromethoxy)-3-ethylphenyl]-3-methyl-3,5-dihydro-4H-imidazol-4-one], the negative-log IC50 (pIC50) is greater than 7.00.

On to `CCc1cc(C2(c3cccc(C#CCF)c3)N=C(N)N(C)C2=O)ccc1OC(F)F` (centres unmarked) [Example 158, 2-Amino-5-[4-(difluoromethoxy)-3-ethylphenyl]-5-[3-(3-fluoroprop-1-yn-1-yl)phenyl]-3-methyl-3,5-dihydro-4H-imidazol-4-one], for which the pIC50 was greater than 7.00.

For the compound `Cc1cc([C@@]2(c3ccc(F)c(C#CCCF)c3)N=C(N)N(C)C2=O)ccc1OC(F)F` [Example 207, (5S)-2-amino-5-[4-(difluoromethoxy)-3-methylphenyl]-5-[4-fluoro-3-(4-fluorobut-1-yn-1-yl)phenyl]-3-methyl-3,5-dihydro-4H-imidazol-4-one], the pIC50 was 6.00 to 6.96.

For `Cc1cc([C@@]2(c3cccc(OCCC(F)F)c3)N=C(N)N(C)C2=O)ccc1OC(F)F` [Example 128, (5S)-2-Amino-5-[4-(difluoromethoxy)-3-methylphenyl]-5-[3-(3,3-difluoropropoxy)phenyl]-3-methyl-3,5-dihydro-4H-imidazol-4-one], the negative logarithm of the IC50 (pIC50) is 6.00 to 6.96.

`CN1C(=O)[C@](c2ccc(F)c(OCC(F)F)c2)(c2ccc(OC(F)F)c(C3CC3)c2)N=C1N` [Example 125, (5R)-2-Amino-5-[3-cyclopropyl-4-(difluoromethoxy)phenyl]-5-[3-(2,2-difluoroethoxy)-4-fluorophenyl]-3-methyl-3,5-dihydro-4H-imidazol-4-one]: the pIC50 is greater than 7.00.

Consider `CN1C(=O)C(c2ccc(OC(F)F)c(CCF)c2)(c2ccc(F)c(OCC(F)F)c2)N=C1N` (centres unmarked) [Example 129, 2-Amino-5-[3-(2,2-difluoroethoxy)-4-fluorophenyl]-5-[4-(difluoromethoxy)-3-(2-fluoroethyl)phenyl]-3-methyl-3,5-dihydro-4H-imidazol-4-one], for which the pIC50 is greater than 7.00.

`CN1C(=O)C(c2cccc(C#CC3CC3)c2)(c2ccc(OC(F)F)c(C3CC3)c2)N=C1N` (centres unmarked) [Example 176, 2-amino-4-(3-cyclopropyl-4-(difluoromethoxy)phenyl)-4-(3-(cyclopropylethynyl)phenyl)-1-methyl-1H-imidazol-5(4H)-one]: the negative logarithm of the IC50 (pIC50) is greater than 7.00.

For `CN1C(=O)[C@](c2ccc(F)c(OCCCF)c2)(c2ccc(OC(F)F)c(C3CC3)c2)N=C1N` (single isomer, unassigned) [Example 86], the negative-log IC50 (pIC50) is greater than 7.00.

For the compound `Cc1cc([C@]2(c3cccc(C#CCCF)c3)N=C(N)N(C)C2=O)ccc1OC(F)F` [Example 206, (5S)-2-amino-5-[4-(difluoromethoxy)-3-methylphenyl]-5-[3-(4-fluorobut-1-yn-1-yl)phenyl]-3-methyl-3,5-dihydro-4H-imidazol-4-one], the pIC50 was greater than 7.00.

`CCOc1cccc(C2(c3ccc(OC(F)F)c(Cl)c3)N=C(N)N(C)C2=O)c1` (centres unmarked) [Example 36, 2-Amino-5-[3-chloro-4-(difluoromethoxy)phenyl]-5-(3-ethoxyphenyl)-3-methyl-3,5-dihydro-4H-imidazol-4-one]: the pIC50 was 6.00 to 6.96.

On to `COCC/C=C/c1cccc(C2(c3ccc(OC(F)F)c(Cl)c3)N=C(N)N(C)C2=O)c1` (centres unmarked) [Example 67, 2-Amino-5-[3-chloro-4-(difluoromethoxy)phenyl)-5-[3-((E)-4-methoxybut-1-enyl)phenyl]-3-methyl-3,5-dihydro-4H-imidazol-4-one], for which the pIC50 was greater than 7.00.

For `CN1C(=O)[C@@](c2ccccc2)(c2ccc(OC(F)F)c(CCF)c2)N=C1N` (single isomer, unassigned) [Example 76], the negative logarithm of the IC50 (pIC50) was less than 6.00.

As to `CN1C(=O)[C@@](c2ccccc2)(c2ccc(OC(F)F)c(Cl)c2)N=C1N` [Example 28, (5R)-2-Amino-5-[3-chloro-4-(difluoromethoxy)phenyl]-1-methyl-5-phenyl-3,5-dihydro-4H-imidazol-4-one], the IC50 – broadly, the concentration that inhibits the measured activity by half – was greater than 1 µM.

For the compound `CC(C)C#Cc1cccc([C@@]2(c3ccc(OC(F)F)c(C4CC4)c3)N=C(N)N(C)C2=O)c1` (single isomer, unassigned) [Example 174], the pIC50 was greater than 7.00.

`CC(C)c1cc(C2(c3ccccc3)N=C(N)N(C)C2=O)ccc1OC(F)F` (stereo in doubt) [Example 138, (5R)-2-Amino-5-[4-(difluoromethoxy)-3-isopropylphenyl]-3-methyl-5-phenyl-3,5-dihydro-4H-imidazol-4-one]: the pIC50 was greater than 7.00.

On to `CCc1cc(C2(c3ccc(F)c(OCCCF)c3)N=C(N)N(C)C2=O)ccc1OC(F)F` (stereo in doubt) [Example 122, (5S)-2-Amino-5-[4-(difluoromethoxy)-3-ethylphenyl]-5-[4-fluoro-3-(3-fluoropropoxy)phenyl]-3-methyl-3,5-dihydro-4H-imidazol-4-one], for which the pIC50 is greater than 7.00.

Regarding `Cc1cc(C2(c3ccc(F)c(OCCC(F)F)c3)N=C(N)N(C)C2=O)ccc1OC(F)F` (centres unmarked) [Example 130, 2-Amino-5-[4-(difluoromethoxy)-3-methylphenyl]-5-[3-(3,3-difluoropropoxy)-4-fluorophenyl]-3-methyl-3,5-dihydro-4H-imidazol-4-one], the negative logarithm of the IC50 (pIC50) was greater than 7.00.

Consider `CCc1cc([C@@]2(c3ccc(F)c(C#CC4CC4)c3)N=C(N)N(C)C2=O)ccc1OC(F)F` [Example 148, (5S)-2-Amino-5-[3-(cyclopropylethynyl)-4-fluorophenyl]-5-[4-(difluoromethoxy)-3-ethylphenyl]-3-methyl-3,5-dihydro-4H-imidazol-4-one], for which the pIC50 is 6.00 to 6.96.

In the case of `COC/C=C/c1cc(C2(c3ccc(OC(F)F)c(C)c3)N=C(N)N(C)C2=O)ccc1F` (centres unmarked) [Example 57, 2-Amino-5-(4-difluoromethoxy-3-methylphenyl)-5-[4-fluoro-3-((E)-3-methoxypropenyl)phenyl]-3-methyl-3,5-dihydro-imidazol-4-one], the pIC50 was greater than 7.00.

As to `CC#Cc1cccc([C@@]2(c3ccc(OC(F)F)c(C4CC4)c3)N=C(N)N(C)C2=O)c1` (single isomer, unassigned) [Example 169], the pIC50 was greater than 7.00.

For `CN1C(=O)C(c2cccc(/C=C/CCF)c2)(c2ccc(OC(F)F)c(Cl)c2)N=C1N` (centres unmarked) [Example 68, 2-Amino-5-[3-chloro-4-(difluoromethoxy)phenyl)-5-[3-((E)-4-fluoro-but-1-enyl)phenyl]-3-methyl-3,5-dihydro-4H-imidazol-4-one], the pIC50 was greater than 7.00.

`CCc1cc(C2(c3ccccc3)N=C(N)N(C)C2=O)ccc1OC(F)F` (centres unmarked) [Example 6, 2-Amino-5-[4-(difluoromethoxy)-3-ethylphenyl]-3-methyl-5-phenyl-3,5-dihydro-4H-imidazol-4-one]: the IC50 was in the range of 0.11 to 1 µM.

For the compound `C=Cc1cc([C@]2(c3ccccc3)N=C(N)N(C)C2=O)ccc1OC(F)F` [Example 34, (5S)-2-Amino-5-[4-(difluoromethoxy)-3-vinylphenyl]-3-methyl-5-phenyl-3,5-dihydro-4H-imidazol-4-one], the IC50 is greater than 1 µM.

For the compound `Cc1cc(C2(c3ccc(F)c(OC(C)C)c3)N=C(N)N(C)C2=O)ccc1OC(F)F` (centres unmarked) [Example 195, 2-amino-5-[4-(difluoromethoxy)-3-methylphenyl]-5-(4-fluoro-3-isopropoxyphenyl)-3-methyl-3,5-dihydro-4H-imidazol-4-one], the pIC50 was 6.00 to 6.96.

Turning to `Cc1cc([C@]2(c3ccc(F)c(OCCCF)c3)N=C(N)N(C)C2=O)ccc1OC(F)F` [Example 111, (5R)-2-Amino-5-[4-(difluoromethoxy)-3-methylphenyl]-5-[4-fluoro-3-(3-fluoropropoxy)phenyl]-3-methyl-3,5-dihydro-4H-imidazol-4-one], the pIC50 was greater than 7.00.

On to `CCc1cc([C@@]2(c3ccc(F)c(C#CCOC)c3)N=C(N)N(C)C2=O)ccc1OC(F)F` [Example 157, (5S)-2-Amino-5-[4-(difluoromethoxy)-3-ethylphenyl]-5-[4-fluoro-3-(3-methoxyprop-1-yn-1-yl)phenyl]-3-methyl-3,5-dihydro-4H-imidazol-4-one], for which the pIC50 is 6.00 to 6.96.

Turning to `CCc1cc([C@@]2(c3ccc(F)c(C#CCC(C)C)c3)N=C(N)N(C)C2=O)ccc1OC(F)F` [Example 151, (5S)-2-Amino-5-[4-(difluoromethoxy)-3-ethylphenyl]-5-[4-fluoro-3-(4-methylpent-1-yn-1-yl)phenyl]-3-methyl-3,5-dihydro-4H-imidazol-4-one], the pIC50 is less than 6.00.

For the origin of these results see patent US20090042964A1, “AMINO-5-[SUBSTITUTED-4-(DIFLUOROMETHOXY)PHENYL]-5-PHENYLIMIDAZOLONE COMPOUNDS AS BETA-SECRETASE INHIBITORS” (Wyeth, priority 2007, published 2009).
